Here are results for 19 compounds from patent publication US7993662B2, “Transparent solid oil cosmetics” (Kokyu Alcohol Kogyo Co., Ltd., priority 2005, dated 2011).

Type in all cases: physicochemical
Series [1] is described as follows: Exudation (45° C. for 2 hours, then 25° C. for 3 hours, visual). On the set-up: key: A: When the amount of exudation was small and there were no oil droplets; B: when a slight degree of exudation was observed but the exudation went back in the temperature-controlled room at 25° C.; when the amount of exudation was large and the exudation did not go back even in the temperature-controlled room at 25° C. As to the method: After the sample stored in the 50 mL glass container as described in the above-mentioned sample preparation method was stored in a temperature-controlled room at 45° C. for 2 hours, the amount of exudation on the surface of the sample was visually evaluated. The extent to which the exudation went back when the sample was returned to the temperature-controlled room at 25° C. and stored for 3 hours was also evaluated.

The nature of series [2]: Evaluation of hardness (EZ-Test-20N hardness meter, needle penetration). Conditions: 25° C. As for the experimental part: A sample such as a solid or an oil-based cosmetic was stored in a temperature-controlled room at 25° C. for at least 1 day, and measurement was carried out using an EZ-Test-20N hardness meter (manufactured by Shimadzu Corporation). The needle diameter was 1.0 mmφ, and the maximum value measured for the stress (N) at a needle penetration depth of 10 mm with a test speed of 10 mm/min was defined as the hardness.
Measurement was carried out using an EZ-Test-20N hardness meter (manufactured by Shimadzu Corporation). The needle diameter was 1.0 mmφ, and the maximum value measured for the stress (N) at a needle penetration depth of 10 mm with a test speed of 10 mm/min was defined as the hardness.

A short description of series [3]: Miscibility evaluation (visual, 100° C. to 110° C.). Particulars: result in words. As for the experimental part: Sample preparation method: Predetermined amounts (mass %) of all components were weighed, dissolved at a temperature of 100° C. to 110° C. as appropriate, stirred until uniform, then cooled to 80° C. to 90° C. while stirring, poured into a preheated 50 mL glass container, transferred to a temperature-controlled room at 45° C., stored for 1 hour while gradually cooling, further transferred to a temperature-controlled room at 25° C., and stored for at least 1 day, thus giving a sample. Evaluation Methods for Various Characteristics (1) Miscibility Evaluation Method
The miscibility at a temperature of 100° C. to 110° C. when preparing the sample was evaluated visually as a degree of difficulty. One that was easily miscible was evaluated as ‘A’, one that was slightly difficulty miscible was evaluated as ‘B’, and one that was difficulty miscible was evaluated as ‘C’.

Setting [4] is: UNICLEAR 100VG: 30% with 70% of the listed component.
The mark [5] stands for this setting: Versamid 930: 30% with 70% of the listed component.
The mark [6] stands for this setting: […] A200V: 30% with 70% of the listed component.

Regarding `CCCCCCCCCCCCCCCCOC(=O)C(CC)CCCC` (stereo not shown) [CEH, Cetyl ethylhexanoate], the Exudation properties entry in series [1] (setting [4]) is listed as “A”. Besides, the Hardness in series [2] (setting [4]) was 0.70 N.
Take `CC(C)CCCCCCCCCCCCCCCOC(=O)CC(O)C(=O)OCCCCCCCCCCCCCCCC(C)C` (stereo not shown) [DIS, Diisostearyl malate]: the Exudation properties result in series [1] (setting [4]) and in series [1] (setting [5]) was “A” throughout. For the same compound, the values for the Hardness in series [2] (setting [4]) and in series [2] (setting [5]) were 0.80 N and 0.12 N, respectively.
Consider `CCCCCCCCCCCCC(CO)CCCCCCCCCC` (stereo not shown) [Example 24SP, Decyltetradecanol], for which the Exudation properties result in series [1] (setting [6]) is given as “C”. For the same compound, the Hardness in series [2] (setting [6]) is listed as 0.05 N.
On the same counts, the results for `CCCCCCCCCCCCCCC(CO)CCCCCCCCCCCC` (stereo not shown) [Example 28SP, Dodecylhexadecanol] are “C” and 0.09 N.
In the case of `CC(C)CCCCCCCCCCCCCCC(=O)OC(C)C` [IPIS, Isopropyl isostearate], the Exudation properties entry in series [1] (setting [4]) is listed as “A”. In series [2] (setting [4]), the Hardness is recorded as 0.60 N.
As to `CC(C)CCCCCCCCCCCCCCCOC(=O)CCCCCCCCCCCCCCC(C)C` [ISIS, Isostearyl isostearate], the Exudation properties result in series [1] (setting [4]) was “B”. In series [2] (setting [4]), this compound returned a Hardness of 0.05 N.
`CC(C)CCCCCCCCCCOC(=O)CCCCCC(C)C` [KAK139, Isotridecyl isononanoate]: in series [1] (setting [4]), the Exudation properties entry was “A”. For the same compound, the Hardness in series [2] (setting [4]) is on record as 0.50 N.
Turning to `CCCCC(CC)C(=O)OCC(C)(C)COC(=O)C(CC)CCCC` (stereo not shown) [NDO, Neopentylglycol diethylhexanoate], the Exudation properties entry in series [1] (setting [4]) is recorded as “A”. In series [2] (setting [4]), this compound registered a Hardness of 0.90 N.
In the case of `CC(C)CCCCCCCCCCCCCCC(=O)OCC(COC(=O)CCCCCCCCCCCCCCC(C)C)(COC(=O)CCCCCCCCCCCCCCC(C)C)COC(=O)CCCCCCCCCCCCCCC(C)C` [PTI, Pentaerythrityl tetraisostearate], the Exudation properties entry in series [1] (setting [4]) is given as “B”. The Hardness in series [2] (setting [4]) is given as 0.01 N.
Turning to `CCCCC(CC)C(=O)OCC(COC(=O)C(CC)CCCC)(COC(=O)C(CC)CCCC)COC(=O)C(CC)CCCC` (stereo not shown) [PTO, Pentaerythrityl tetraethylhexanoate], the Exudation properties result in series [1] (setting [4]) is reported as “B”. Moreover, the Hardness in series [2] (setting [4]) is recorded as 0.04 N.
On to `Nc1cc(S(=O)(=O)[O-])cc2cc(S(=O)(=O)[O-])c(N=Nc3ccccc3)c(O)c12.[Na+].[Na+]` [Red. No. 227], for which, in series [3], the “miscibility with the base” value is “particularly excellent”.
In the case of `CC(C)CCCC(C)CCCC(C)CCCCC(C)CCCC(C)CCCC(C)C` (stereo not shown) [SQ, Squalane], the Exudation properties result in series [1] (setting [4]) was “A”. In series [2] (setting [4]), this compound yielded a Hardness of 0.02 N.
Turning to `CC(C)CCCCCCCCCCCCCCC(=O)OCC(COC(=O)CCCCCCCCCCCCCCC(C)C)OC(=O)CCCCCCCCCCCCCCC(C)C` [TISG, Triisostearin], the Exudation properties entry in series [1] (setting [4]) is “B”. This compound also registered a Hardness in series [2] (setting [4]) of 0.03 N.
Turning to `CCCCC(CC)C(=O)OCC(COC(=O)C(CC)CCCC)OC(=O)C(CC)CCCC` (stereo not shown) [TOG, Triethylhexanoin], the Exudation properties entry in series [1] (setting [4]) is “B”. The compound also gave a Hardness in series [2] (setting [4]) of 0.06 N.
On to `CCC(COC(=O)CCCCCCCCCCCCCCC(C)C)(COC(=O)CCCCCCCCCCCCCCC(C)C)COC(=O)CCCCCCCCCCCCCCC(C)C` [TTI, Trimethylolpropane triisostearate], for which the Exudation properties result in series [1] (setting [4]) and in series [1] (setting [6]) was “B” throughout. Besides, the Hardness in series [2] (setting [4]) stood at 0.01 N; in series [2] (setting [6]), 0.02 N.
Take Polyglyceryl-2 diisostearate [PGIS22]: the Exudation properties result in series [1] (setting [4]) and in series [1] (setting [5]) was “A” each time. In addition, the Hardness in series [2] (setting [4]) worked out at 0.33 N; in series [2] (setting [5]) it was 3.00 N.
Consider Polyglyceryl-2 isostearate [PGIS21], for which the Exudation properties entry in series [1] (setting [4]) is recorded as “A”. In series [2] (setting [4]), this compound yielded a Hardness of 0.35 N.
Regarding Polyglyceryl-2 triisostearate [PGIS23], the Exudation properties entry in series [1] (setting [4]) is “A”. The same compound registered a Hardness in series [2] (setting [4]) of 0.50 N.
As for “Trimethylolpropane triethylhexanoate [TTO]”, the Exudation properties entry in series [1] (setting [6]) is “B”. In series [2] (setting [6]), this compound returned a Hardness of 0.03 N.
